From patent US9663460B2, “Sulfur derivatives as chemokine receptor modulators” (ALLERGAN, INC., priority 2010, dated 2017)

What follows are molecules tested against CCR2 (Homo sapiens (Human), UniProt P41597) (assay: Calcium activity assayed on the FLIPR Tetra in HEK-Gqi5 cells stably expressing CCR2). Details: FLIPR Tetra calcium assay.
Sequence of CCR2 (P41597 whole entry, species assumed): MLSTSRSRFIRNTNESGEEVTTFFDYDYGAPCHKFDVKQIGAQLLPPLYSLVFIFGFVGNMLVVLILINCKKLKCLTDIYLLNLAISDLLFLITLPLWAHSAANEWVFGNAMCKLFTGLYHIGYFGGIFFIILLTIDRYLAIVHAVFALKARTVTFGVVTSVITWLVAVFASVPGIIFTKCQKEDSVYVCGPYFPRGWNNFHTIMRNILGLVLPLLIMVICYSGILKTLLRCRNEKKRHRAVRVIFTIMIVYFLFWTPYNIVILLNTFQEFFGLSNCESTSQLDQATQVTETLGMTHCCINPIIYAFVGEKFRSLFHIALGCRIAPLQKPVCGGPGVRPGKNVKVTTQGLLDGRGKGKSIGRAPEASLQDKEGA
Type: cell-based
Protocol: HEK-Gqi5 cells stably expressing CCR2 were cultured in (DMEM high glucose, 10% FBS, 1% PSA, 400 μg/ml geneticin and 50 μg/ml hygromycin. Appropriate positive control chemokines (MCP-1, MIP1A or RANTES) was used as the positive control agonist for screening compound-induced calcium activity assayed on the FLIPR^Tetra. The drug plates were prepared in 384-well microplates using the EP3 and the MuItiPROBE robotic liquid handling systems. Compounds were synthesized and tested for CCR^2 activity.
In the case of `O=S(=O)(Nc1cc(Cl)ccc1SCc1cccnc1)c1ccc(Cl)c(C(F)(F)F)c1` [4-chloro-N-{5-chloro-2-[(pyridin-3-ylmethyl)thio]phenyl}-3-(trifluoromethyl)benzenesulfonamide], the “CCR2 % ANTAGONISM” value is reported as 85% and the IC50 is reported as 94 nM. `C[S+]([O-])c1ccc(Cl)cc1NS(=O)(=O)c1cc2cc(Cl)ccc2o1` (stereo not drawn) [5-chloro-N-[5-chloro-2-(methylsulfinyl)phenyl]-1-benzofuran-2-sulfonamide] was tested, and the “CCR2 % ANTAGONISM” value was 92% and the IC50 was 655 nM. For `CS(=O)(=O)c1ccc(Cl)cc1NS(=O)(=O)c1cc2cc(Cl)ccc2o1` [5-chloro-N-[5-chloro-2-(methylsulfonyl)phenyl]-1-benzofuran-2-sulfonamide], the “CCR2 % ANTAGONISM” value was 74% and the IC50 was 2050 nM. `CC(=O)Nc1nc(C[S+]([O-])c2ccc(Cl)cc2NS(=O)(=O)c2cc3ccccc3o2)cs1` (stereo not drawn) [Compound 236, N-{-4-[({2-[(1-benzofuran-2-ylsulfonyl)amino]-4-chlorophenyl}sulfinyl)methyl]-1,3-thiazol-2-yl}acetamide] was tested, and the “CCR2 % ANTAGONISM” value was 79% and the IC50 was 2680 nM. For `CC(=O)Nc1nc(CS(=O)(=O)c2ccc(Cl)cc2NS(=O)(=O)c2cc3ccccc3o2)cs1` [Compound 237, N-{-4-[({2-[(1-benzofuran-2-ylsulfonyl)amino]-4-chlorophenyl}sulfonyl)methyl]-1,3-thiazol-2-yl}acetamide], the “CCR2 % ANTAGONISM” value was 87%. In the case of `CC(=O)NCC[S+]([O-])c1ccc(Cl)cc1NS(=O)(=O)c1ccc(Cl)c(C(F)(F)F)c1` (stereo not drawn) [N-(2-{[4-chloro-2-({[4-chloro-3-(trifluoromethyl)phenyl]sulfonyl}amino)phenyl]sulfinyl}ethyl)acetamide], the “CCR2 % ANTAGONISM” value is reported as 97%. With `CC(=O)NCCS(=O)(=O)c1ccc(Cl)cc1NS(=O)(=O)c1ccc(Cl)c(C(F)(F)F)c1` [N-(2-{[4-chloro-2-({[4-chloro-3-(trifluoromethyl)phenyl]sulfonyl}amino)phenyl]sulfonyl}ethyl)acetamide] the “CCR2 % ANTAGONISM” value was 98% and the IC50 was 5190 nM. In the case of `Nc1nc(C[S+]([O-])c2ccc(Cl)cc2NS(=O)(=O)c2cc3ccccc3o2)cs1` (stereo not drawn) [N-(2-{[(2-amino-1,3-thiazol-4-yl)methyl]sulfinyl}-5-chlorophenyl)-1-benzofuran-2-sulfonamide], the “CCR2 % ANTAGONISM” value is reported as 100% and the IC50 is reported as 262 nM. In the case of `Nc1nc(CS(=O)(=O)c2ccc(Cl)cc2NS(=O)(=O)c2cc3ccccc3o2)cs1` [N-(2-{[(2-amino-1,3-thiazol-4-yl)methyl]sulfonyl}-5-chlorophenyl)-1-benzofuran-2-sulfonamide], the “CCR2 % ANTAGONISM” value is reported as 102% and the IC50 is reported as 83 nM. For `Nc1nc(CSc2ccc(Cl)cc2NS(=O)(=O)c2cc3ccccc3o2)cs1` [N-(2-{[(2-amino-1,3-thiazol-4-yl)methyl]thio}-5-chlorophenyl)-1-benzofuran-2-sulfonamide], the “CCR2 % ANTAGONISM” value was 102% and the IC50 was 42 nM. For `Nc1cc(CS(=O)(=O)c2ccc(Cl)cc2NS(=O)(=O)c2cc3ccccc3o2)cc[n+]1[O-]` [N-(2-{[(2-amino-1-oxidopyridin-4-yl)methyl]sulfonyl}-5-chlorophenyl)-1-benzofuran-2-sulfonamide], the “CCR2 % ANTAGONISM” value was 54% and the IC50 was 9960 nM. With `Nc1cc(C[S+]([O-])c2ccc(Cl)cc2NS(=O)(=O)c2cc3ccccc3o2)ccn1` (stereo not drawn) [N-(2-{[(2-aminopyridin-4-yl)methyl]sulfinyl}-5-chlorophenyl)-1-benzofuran-2-sulfonamide] the “CCR2 % ANTAGONISM” value was 101% and the IC50 was 865 nM. `Nc1cc(CS(=O)(=O)c2ccc(Cl)cc2NS(=O)(=O)c2cc3ccccc3o2)ccn1` [N-(2-{[(2-aminopyridin-4-yl)methyl]sulfonyl}-5-chlorophenyl)-1-benzofuran-2-sulfonamide] was tested, and the “CCR2 % ANTAGONISM” value was 101% and the IC50 was 364 nM. With `Nc1cc(CSc2ccc(Cl)cc2NS(=O)(=O)c2cc3ccccc3o2)ccn1` [N-(2-{[(2-aminopyridin-4-yl)methyl]thio}-5-chlorophenyl)-1-benzofuran-2-sulfonamide] the “CCR2 % ANTAGONISM” value was 100% and the IC50 was 80 nM. For `Nc1cc(C[S+]([O-])c2ccc(Cl)cc2NS(=O)(=O)c2cc3ccccc3o2)n[nH]1` (stereo not drawn) [N-(2-{[(5-amino-1H-pyrazol-3-yl)methyl]sulfinyl}-5-chlorophenyl)-1-benzofuran-2-sulfonamide], the “CCR2 % ANTAGONISM” value was 99% and the IC50 was 1380 nM. In the case of `Nc1cc(CS(=O)(=O)c2ccc(Cl)cc2NS(=O)(=O)c2cc3ccccc3o2)n[nH]1` [N-(2-{[(5-amino-1H-pyrazol-3-yl)methyl]sulfonyl}-5-chlorophenyl)-1-benzofuran-2-sulfonamide], the “CCR2 % ANTAGONISM” value is reported as 98% and the IC50 is reported as 1870 nM. `Nc1cc(CSc2ccc(Cl)cc2NS(=O)(=O)c2cc3ccccc3o2)n[nH]1` [N-(2-{[(5-amino-1H-pyrazol-3-yl)methyl]thio}-5-chlorophenyl)-1-benzofuran-2-sulfonamide] was tested, and the “CCR2 % ANTAGONISM” value was 105% and the IC50 was 25 nM. `Nc1nnc(C[S+]([O-])c2ccc(Cl)cc2NS(=O)(=O)c2cc3ccccc3o2)[nH]1` (stereo not drawn) [N-(2-{[(5-amino-4H-1,2,4-triazol-3-yl)methyl]sulfinyl}-5-chlorophenyl)-1-benzofuran-2-sulfonamide] was tested, and the “CCR2 % ANTAGONISM” value was 48%. `Nc1nnc(CSc2ccc(Cl)cc2NS(=O)(=O)c2cc3ccccc3o2)[nH]1` [N-(2-{[(5-amino-4H-1,2,4-triazol-3-yl)methyl]thio}-5-chlorophenyl)-1-benzofuran-2-sulfonamide] was tested, and the “CCR2 % ANTAGONISM” value was 103% and the IC50 was 32 nM. `Nc1cccc(CS(=O)(=O)c2ccc(Cl)cc2NS(=O)(=O)c2cc3ccccc3o2)[n+]1[O-]` [N-(2-{[(6-amino-1-oxidopyridin-2-yl)methyl]sulfonyl}-5-chlorophenyl)-1-benzofuran-2-sulfonamide] was tested, and the “CCR2 % ANTAGONISM” value was 95% and the IC50 was 264 nM. For `Nc1cccc(C[S+]([O-])c2ccc(Cl)cc2NS(=O)(=O)c2cc3ccccc3o2)n1` (stereo not drawn) [N-(2-{[(6-aminopyridin-2-yl)methyl]sulfinyl}-5-chlorophenyl)-1-benzofuran-2-sulfonamide], the “CCR2 % ANTAGONISM” value was 99% and the IC50 was 28 nM. For `Nc1cccc(CS(=O)(=O)c2ccc(Cl)cc2NS(=O)(=O)c2cc3ccccc3o2)n1` [N-(2-{[(6-aminopyridin-2-yl)methyl]sulfonyl}-5-chlorophenyl)-1-benzofuran-2-sulfonamide], the “CCR2 % ANTAGONISM” value was 102% and the IC50 was 15 nM. For `Nc1cccc(CSc2ccc(Cl)cc2NS(=O)(=O)c2cc3ccccc3o2)n1` [N-(2-{[(6-aminopyridin-2-yl)methyl]thio}-5-chlorophenyl)-1-benzofuran-2-sulfonamide], the “CCR2 % ANTAGONISM” value was 94% and the IC50 was 32 nM. For `O=S(=O)(Nc1cc(Cl)ccc1[S+]([O-])CCc1cn[nH]c1)c1cc2ccccc2o1` (stereo not drawn) [N-(5-chloro-2-{[2-(1H-pyrazol-4-yl)ethyl]sulfinyl}phenyl)-1-benzofuran-2-sulfonamide], the “CCR2 % ANTAGONISM” value was 67% and the IC50 was 1060 nM. In the case of `O=S(=O)(CCc1cn[nH]c1)c1ccc(Cl)cc1NS(=O)(=O)c1cc2ccccc2o1` [N-(5-chloro-2-{[2-(1H-pyrazol-4-yl)ethyl]sulfonyl}phenyl)-1-benzofuran-2-sulfonamide], the “CCR2 % ANTAGONISM” value is reported as 93% and the IC50 is reported as 570 nM. For `O=S(=O)(Nc1cc(Cl)ccc1SCCc1cn[nH]c1)c1cc2ccccc2o1` [N-(5-chloro-2-{[2-(1H-pyrazol-4-yl)ethyl]thio}phenyl)-1-benzofuran-2-sulfonamide], the “CCR2 % ANTAGONISM” value was 91% and the IC50 was 412 nM. In the case of `Cc1n[nH]c(C)c1CC[S+]([O-])c1ccc(Cl)cc1NS(=O)(=O)c1cc2ccccc2o1` (stereo not drawn) [N-(5-chloro-2-{[2-(3,5-dimethyl-1H-pyrazol-4-yl)ethyl]sulfinyl}phenyl)-1-benzofuran-2-sulfonamide], the “CCR2 % ANTAGONISM” value is reported as 83% and the IC50 is reported as 3050 nM. `Cc1n[nH]c(C)c1CCS(=O)(=O)c1ccc(Cl)cc1NS(=O)(=O)c1cc2ccccc2o1` [N-(5-chloro-2-{[2-(3,5-dimethyl-1H-pyrazol-4-yl)ethyl]sulfonyl}phenyl)-1-benzofuran-2-sulfonamide] was tested, and the “CCR2 % ANTAGONISM” value was 96% and the IC50 was 1090 nM. With `Cc1n[nH]c(C)c1CCSc1ccc(Cl)cc1NS(=O)(=O)c1cc2ccccc2o1` [N-(5-chloro-2-{[2-(3,5-dimethyl-1H-pyrazol-4-yl)ethyl]thio}phenyl)-1-benzofuran-2-sulfonamide] the “CCR2 % ANTAGONISM” value was 89% and the IC50 was 279 nM. `CN(C)CCC[S+]([O-])c1ccc(Cl)cc1NS(=O)(=O)c1cc2ccccc2o1` (stereo not drawn) [N-(5-chloro-2-{[3-(dimethylamino)propyl]sulfinyl}phenyl)-1-benzofuran-2-sulfonamide] was tested, and the “CCR2 % ANTAGONISM” value was 81%. In the case of `CN(C)CCCS(=O)(=O)c1ccc(Cl)cc1NS(=O)(=O)c1cc2ccccc2o1` [N-(5-chloro-2-{[3-(dimethylamino)propyl]sulfonyl}phenyl)-1-benzofuran-2-sulfonamide], the “CCR2 % ANTAGONISM” value is reported as 96%. In the case of `CN(C)CCCSc1ccc(Cl)cc1NS(=O)(=O)c1cc2ccccc2o1` [N-(5-chloro-2-{[3-(dimethylamino)propyl]thio}phenyl)-1-benzofuran-2-sulfonamide], the “CCR2 % ANTAGONISM” value is reported as 106% and the IC50 is reported as 2040 nM. For `C[N+](C)([O-])CCCS(=O)(=O)c1ccc(Cl)cc1NS(=O)(=O)c1cc2ccccc2o1` [N-(5-chloro-2-{[3-(dimethylnitroryl)propyl]sulfonyl}phenyl)-1-benzofuran-2-sulfonamide], the “CCR2 % ANTAGONISM” value was 83%.
